According to ChEMBL document CHEMBL4007498, “Design and synthesis of hybrids of diarylpyrimidines and diketo acids as HIV-1 inhibitors” (Bioorg Med Chem Lett, 2017):

Assays:
[1] = Cytotoxicity against human MT4 cells assessed as decrease in cell viability after 5 days by MTT assay; assay type: cell-based
[2] = Selectivity index, ratio of CC50 for human MT4 cells to EC50 for wild type HIV1 3B; assay type: toxicity; details: read-out: Ratio CC50/EC50
[3] = molecular target: Human immunodeficiency virus type 1 reverse transcriptase (Human immunodeficiency virus 1, UniProt Q72547); assay: Inhibition of recombinant wild type HIV-1 reverse transcriptase p66/p51 using poly(rA)/oligo(dT)16 as template/primer after 40 mins by ELISA
[4] = tested on: Human immunodeficiency virus 1; assay: Antiviral activity against wild type HIV1 3B infected in human MT4 cells assessed as inhibition of viral replication after 5 days by MTT assay; assay type: functional, cell-based; details: Human immunodeficiency virus 1, 3B, MT4, 120 h
[5] = tested on: Human immunodeficiency virus 2; assay: Antiviral activity against HIV2 ROD infected in human MT4 cells assessed as inhibition of viral replication after 5 days by MTT assay; assay type: functional, cell-based; details: Human immunodeficiency virus 2, ISOLATE ROD, MT4, 120 h
[6] = tested on: Human immunodeficiency virus 1; assay: Antiviral activity against HIV1 harboring reverse transcriptase K103N mutant infected in human MT4 cells assessed as inhibition of viral replication after 5 days by MTT assay; assay type: functional, cell-based; details: Human immunodeficiency virus 1, MT4, 120 h
[7] = tested on: Human immunodeficiency virus 1; assay: Antiviral activity against HIV1 RES056 harboring reverse transcriptase K103N/Y181C double mutant infected in human MT4 cells assessed as inhibition of viral replication after 5 days by MTT assay; assay type: functional, cell-based; details: Human immunodeficiency virus 1, RES056, MT4, 120 h
[8] = tested on: Human immunodeficiency virus 1; assay: Antiviral activity against HIV1 harboring reverse transcriptase L100I mutant infected in human MT4 cells assessed as inhibition of viral replication after 5 days by MTT assay; assay type: functional, cell-based; details: Human immunodeficiency virus 1, MT4, 120 h
[9] = tested on: Human immunodeficiency virus 1; assay: Antiviral activity against HIV1 harboring reverse transcriptase Y181C mutant infected in human MT4 cells assessed as inhibition of viral replication after 5 days by MTT assay; assay type: functional, cell-based; details: Human immunodeficiency virus 1, MT4, 120 h
[10] = tested on: Human immunodeficiency virus 1; assay: Antiviral activity against HIV1 harboring reverse transcriptase Y188L mutant infected in human MT4 cells assessed as inhibition of viral replication after 5 days by MTT assay; assay type: functional, cell-based; details: Human immunodeficiency virus 1, MT4, 120 h
[11] = tested on: Human immunodeficiency virus 1; assay: Antiviral activity against HIV1 harboring reverse transcriptase E138K mutant infected in human MT4 cells assessed as inhibition of viral replication after 5 days by MTT assay; assay type: functional, cell-based; details: Human immunodeficiency virus 1, MT4, 120 h
[12] = tested on: Human immunodeficiency virus 1; assay: Antiviral activity against HIV1 harboring reverse transcriptase F227L/V106A double mutant infected in human MT4 cells assessed as inhibition of viral replication after 5 days by MTT assay; assay type: functional, cell-based; details: Human immunodeficiency virus 1, MT4, 120 h

Structure (SMILES)	CC50 at 120 h [1] [µM]	selectivity ratio [2]	IC50 [3] [µM]	EC50 [4] [µM]	EC50 [5] [µM]	EC50 [6] [µM]	EC50 [7] [µM]	EC50 [8] [µM]	EC50 [9] [µM]	EC50 [10] [µM]	EC50 [11] [µM]	EC50 [12] [µM]
O=C(O)/C(O)=C/C(=O)c1cccc(Cc2ccccc2)c1	> 10	> 61	> 100									
O=C(O)C(=O)CC(=O)c1cccc(O)c1	528	< 1		> 528	> 528							
N#Cc1ccc(Nc2nccc(Oc3ccc(C(=O)CC(=O)C(=O)O)cc3)n2)cc1	42	182 to 183	25.2	0.23	> 28	42 to 48	42 to 48	> 48	> 48	> 48	10	> 48
N#Cc1ccc(Nc2nccc(Oc3cccc(C(=O)CC(=O)C(=O)O)c3)n2)cc1	10 to 62	71 to 442	5.93	0.14	> 8	38	9 to 10	> 10	50	> 10	43	59
CCOC(=O)C(=O)CC(=O)c1cccc(O)c1	356 to 364	< 1		356 to 357	> 357							
CCOC(=O)C(=O)CC(=O)c1cccc(Oc2ccnc(Nc3ccc(C#N)cc3)n2)c1	14	78	6.06	0.18	> 10	13 to 14	13 to 14	> 13	> 13	> 13	10	> 13
CCOC(=O)C(=O)CC(=O)c1ccc(O)cc1	466	< 1		> 466	> 312							
O=C(O)C(=O)CC(=O)c1ccc(O)cc1	> 600	1		> 600	> 600							
CCOC(=O)C(=O)CC(=O)c1ccc(Oc2ccnc(Nc3ccc(C#N)cc3)n2)cc1	18	95	5.86	0.19	> 16	10	18 to 22	> 22	> 22	> 22	7	> 22
O=C1Nc2ccc(Cl)cc2[C@@](C#CC2CC2)(C(F)(F)F)O1 [EFAVIRENZ]	9 to 9.3	1720 to 2510		0.0037 to 0.0054		0.12 to 0.17	0.12 to 0.17	0.038	0.0054	0.17	0.0047	0.13
Cc1cc(C#N)cc(C)c1Oc1nc(Nc2ccc(C#N)cc2)nc(N)c1Br [ETRAVIRINE]	4.6 to 5			0.0033		0.0036 to 0.004	0.03			0.022	0.015	0.022
Cc1ccnc2c1NC(=O)c1cccnc1N2C1CC1 [NEVIRAPINE]	> 15	> 179		0.084		> 15	> 15	1.8	> 15	> 15	0.21	> 15
Cc1cn([C@H]2C[C@H](N=[N+]=[N-])[C@@H](CO)O2)c(=O)[nH]c1=O [ZIDOVUDINE]	7 to 7.5	971 to 974		0.0077		0.016	0.008 to 0.01	0.0052	0.0057	0.007	0.009	0.0035
